Experimental data from PubChem BioAssay (NCI).
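Five compound concentrations were applied to cells in 96-well plates for 48 hours; endpoints were derived by simple linear interpolation of the resulting dose-response curve. TGI: concentration producing complete growth inhibition.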

Experiments:
Assay in all cases: inhibition of tumour cell growth, NCI panel, 48 h
786-0 renal = tested on: 786-0 renal
A498 renal = tested on: A498 renal
A549 NSCLC = tested on: A549 NSCLC
CAKI-1 renal = tested on: CAKI-1 renal
CCRF-CEM leukemia = tested on: CCRF-CEM leukemia
COLO 205 colon = tested on: COLO 205 colon
DLD-1 colon = tested on: DLD-1 colon
DMS 114 small cell lung = tested on: DMS 114 small cell lung
EKVX NSCLC = tested on: EKVX NSCLC
HCC-2998 colon = tested on: HCC-2998 colon
HCT-116 colon = tested on: HCT-116 colon
HL-60(TB) leukemia = tested on: HL-60(TB) leukemia
HOP-18 NSCLC = tested on: HOP-18 NSCLC
HOP-62 NSCLC = tested on: HOP-62 NSCLC
IGROV1 ovarian = tested on: IGROV1 ovarian
K-562 leukemia = tested on: K-562 leukemia
KM12 colon = tested on: KM12 colon
KM20L2 colon = tested on: KM20L2 colon
LOX IMVI melanoma = tested on: LOX IMVI melanoma
LXFL 529 NSCLC = tested on: LXFL 529 NSCLC
M14 melanoma = tested on: M14 melanoma
M19-MEL melanoma = tested on: M19-MEL melanoma
MALME-3M melanoma = tested on: MALME-3M melanoma
MOLT-4 leukemia = tested on: MOLT-4 leukemia
NCI-H226 lung = tested on: NCI-H226 lung
NCI-H23 lung = tested on: NCI-H23 lung
NCI-H460 lung = tested on: NCI-H460 lung
NCI-H522 lung = tested on: NCI-H522 lung
OVCAR-3 ovarian = tested on: OVCAR-3 ovarian
OVCAR-4 ovarian = tested on: OVCAR-4 ovarian
OVCAR-5 ovarian = tested on: OVCAR-5 ovarian
OVCAR-8 ovarian = tested on: OVCAR-8 ovarian
RPMI-8226 leukemia = tested on: RPMI-8226 leukemia
RXF 393 renal = tested on: RXF 393 renal
RXF-631 renal = tested on: RXF-631 renal
SF-268 CNS = tested on: SF-268 CNS
SF-295 CNS = tested on: SF-295 CNS
SF-539 CNS = tested on: SF-539 CNS
SK-MEL-2 melanoma = tested on: SK-MEL-2 melanoma
SK-MEL-28 melanoma = tested on: SK-MEL-28 melanoma
SK-MEL-5 melanoma = tested on: SK-MEL-5 melanoma
SK-OV-3 ovarian = tested on: SK-OV-3 ovarian
SN12C renal = tested on: SN12C renal
SNB-19 CNS = tested on: SNB-19 CNS
SNB-75 CNS = tested on: SNB-75 CNS
SNB-78 CNS = tested on: SNB-78 CNS
SW-620 colon = tested on: SW-620 colon
TK-10 renal = tested on: TK-10 renal
U251 CNS = tested on: U251 CNS
UACC-257 melanoma = tested on: UACC-257 melanoma
UACC-62 melanoma = tested on: UACC-62 melanoma
UO-31 renal = tested on: UO-31 renal
XF 498 CNS = tested on: XF 498 CNS
ACHN renal = tested on: ACHN renal
DMS 273 small cell lung = tested on: DMS 273 small cell lung
HCT-15 colon = tested on: HCT-15 colon
HOP-92 NSCLC = tested on: HOP-92 NSCLC
HT29 colon = tested on: HT29 colon
SR leukemia = tested on: SR leukemia

`CCOC(=O)C1=C(Nc2ccc(Cl)c(Cl)c2)OC/C1=N\NS(=O)(=O)c1ccc(C)cc1` gave a TGI (786-0 renal) greater than 100 µM, a TGI (A498 renal) greater than 100 µM and a TGI (A549 NSCLC) greater than 100 µM. It also gave a TGI (CAKI-1 renal) greater than 100 µM, a TGI (CCRF-CEM leukemia) greater than 100 µM and a TGI (COLO 205 colon) greater than 100 µM. For the same compound, the TGI (DLD-1 colon) was greater than 100 µM, the TGI (DMS 114 small cell lung) was greater than 100 µM and the TGI (EKVX NSCLC) was greater than 100 µM. For the same compound, the TGI (HCC-2998 colon) was greater than 100 µM, the TGI (HCT-116 colon) was greater than 100 µM and the TGI (HL-60(TB) leukemia) was greater than 100 µM. For the same compound, the TGI (HOP-18 NSCLC) was greater than 100 µM, the TGI (HOP-62 NSCLC) was greater than 100 µM and the TGI (IGROV1 ovarian) was greater than 100 µM. It also gave a TGI (K-562 leukemia) greater than 100 µM, a TGI (KM12 colon) greater than 100 µM and a TGI (KM20L2 colon) greater than 100 µM. It also gave a TGI (LOX IMVI melanoma) greater than 100 µM, a TGI (LXFL 529 NSCLC) greater than 100 µM and a TGI (M14 melanoma) greater than 100 µM. For the same compound, the TGI (M19-MEL melanoma) was greater than 100 µM, the TGI (MALME-3M melanoma) was greater than 100 µM and the TGI (MOLT-4 leukemia) was greater than 100 µM. The TGI (NCI-H226 lung) was greater than 100 µM, the TGI (NCI-H23 lung) was greater than 100 µM and the TGI (NCI-H460 lung) was greater than 100 µM. For the same compound, the TGI (NCI-H522 lung) was 74.8 µM, the TGI (OVCAR-3 ovarian) was greater than 100 µM and the TGI (OVCAR-4 ovarian) was greater than 100 µM. It also gave a TGI (OVCAR-5 ovarian) greater than 100 µM, a TGI (OVCAR-8 ovarian) greater than 100 µM and a TGI (RPMI-8226 leukemia) of 64.9 µM. The TGI (RXF 393 renal) was greater than 100 µM, the TGI (RXF-631 renal) was greater than 100 µM and the TGI (SF-268 CNS) was greater than 100 µM. It also gave a TGI (SF-295 CNS) greater than 100 µM, a TGI (SF-539 CNS) greater than 100 µM and a TGI (SK-MEL-2 melanoma) greater than 100 µM. For the same compound, the TGI (SK-MEL-28 melanoma) was greater than 100 µM, the TGI (SK-MEL-5 melanoma) was greater than 100 µM and the TGI (SK-OV-3 ovarian) was greater than 100 µM. The TGI (SN12C renal) was greater than 100 µM, the TGI (SNB-19 CNS) was greater than 100 µM and the TGI (SNB-75 CNS) was greater than 100 µM. The TGI (SNB-78 CNS) was greater than 100 µM, the TGI (SW-620 colon) was greater than 100 µM and the TGI (TK-10 renal) was greater than 100 µM. For the same compound, the TGI (U251 CNS) was greater than 100 µM, the TGI (UACC-257 melanoma) was 61.7 µM and the TGI (UACC-62 melanoma) was greater than 100 µM. It also gave a TGI (UO-31 renal) of 85.6 µM and a TGI (XF 498 CNS) greater than 100 µM.

`COC1OC2COC(c3ccccc3)OC2C(O)C1Br` (stereo not drawn) showed a TGI (786-0 renal) greater than 100 µM, a TGI (A498 renal) greater than 100 µM and a TGI (A549 NSCLC) greater than 100 µM. For the same compound, the TGI (ACHN renal) was greater than 100 µM, the TGI (CAKI-1 renal) was greater than 100 µM and the TGI (CCRF-CEM leukemia) was greater than 100 µM. The TGI (COLO 205 colon) was greater than 100 µM, the TGI (DLD-1 colon) was greater than 100 µM and the TGI (DMS 273 small cell lung) was greater than 100 µM. The TGI (HCC-2998 colon) was greater than 100 µM, the TGI (HCT-116 colon) was greater than 100 µM and the TGI (HCT-15 colon) was greater than 100 µM. For the same compound, the TGI (HL-60(TB) leukemia) was greater than 100 µM, the TGI (HOP-18 NSCLC) was greater than 100 µM and the TGI (HOP-62 NSCLC) was greater than 100 µM. For the same compound, the TGI (HOP-92 NSCLC) was greater than 100 µM, the TGI (HT29 colon) was greater than 100 µM and the TGI (IGROV1 ovarian) was greater than 100 µM. The TGI (K-562 leukemia) was greater than 100 µM, the TGI (KM12 colon) was greater than 100 µM and the TGI (LOX IMVI melanoma) was greater than 100 µM. For the same compound, the TGI (LXFL 529 NSCLC) was greater than 100 µM, the TGI (M14 melanoma) was greater than 100 µM and the TGI (M19-MEL melanoma) was greater than 100 µM. It also gave a TGI (MALME-3M melanoma) greater than 100 µM, a TGI (MOLT-4 leukemia) greater than 100 µM and a TGI (NCI-H23 lung) greater than 100 µM. It also gave a TGI (NCI-H460 lung) greater than 100 µM, a TGI (NCI-H522 lung) greater than 100 µM and a TGI (OVCAR-3 ovarian) greater than 100 µM. The TGI (OVCAR-4 ovarian) was greater than 100 µM, the TGI (OVCAR-5 ovarian) was greater than 100 µM and the TGI (OVCAR-8 ovarian) was greater than 100 µM. For the same compound, the TGI (RPMI-8226 leukemia) was greater than 100 µM, the TGI (RXF 393 renal) was greater than 100 µM and the TGI (SF-268 CNS) was greater than 100 µM. For the same compound, the TGI (SF-295 CNS) was greater than 100 µM, the TGI (SF-539 CNS) was greater than 100 µM and the TGI (SK-MEL-28 melanoma) was greater than 100 µM. The TGI (SK-MEL-5 melanoma) was greater than 100 µM, the TGI (SN12C renal) was greater than 100 µM and the TGI (SNB-19 CNS) was greater than 100 µM. For the same compound, the TGI (SNB-78 CNS) was greater than 100 µM, the TGI (SR leukemia) was greater than 100 µM and the TGI (SW-620 colon) was greater than 100 µM. For the same compound, the TGI (TK-10 renal) was greater than 100 µM, the TGI (U251 CNS) was greater than 100 µM and the TGI (UACC-257 melanoma) was greater than 100 µM. The TGI (UACC-62 melanoma) was greater than 100 µM and the TGI (XF 498 CNS) was greater than 100 µM.
